The term IC50 denotes the midpoint of a concentration-inhibition curve. A higher IC50 goes with lower potency.

Data set [1] can be described thus: Tolerability in Balb/c mice, plasma chemistry markers (Example 12). Type of data set: in vivo. The conditions noted are these: 50 mg/kg subcutaneously twice a week for four weeks. On the procedure:
Balb/c mice were treated with modified oligonucleotides selected from studies described above and evaluated for changes in the levels of various plasma chemistry markers.
(§1) Groups of male Balb/c mice at 6-7 weeks of age (obtained from Taconic) were injected subcutaneously twice a week for four weeks (for a total of 8 treatments) with 50 mg/kg of modified oligonucleotides. One group of male Balb/c mice was injected with PBS. Mice were euthanized on day 26 post start of treatment (24 hours following the final administration).

For data set [2], the system named is Yap1 mRNA. Put plainly: Dose-dependent inhibition of human Yap1 in A-431 cells (Example 7, 10,000 cells per well, RTS36584). Type of data set: cell-based. The conditions noted are these: free uptake. Summed up: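 A-431 cells at 10,000 per well received modified oligonucleotides by free uptake at several doses. After about 48 hours, Yap1 mRNA was quantified with primer-probe set RTS36584, normalized to RIBOGREEN total RNA and expressed as % untreated control. IC50 came from linear regression on a log/linear plot.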

A short description of data set [3]: Tolerability in Balb/c mice, body and organ weights (Example 12). The format is in vivo. The conditions noted are these: male Balb/c mice, 50 mg/kg s.c. twice a week for four weeks (8 treatments), end of study (day 26). On the procedure:
as §1
Body weights of Balb/c mice were measured at the end of the study, and the average body weight for each group is presented in the table below. Modified oligonucleotides that caused any changes in organ weights outside the expected range for modified oligonucleotides were excluded from further studies.

Where [4] appears, read: 15.6 nM, A-431 cells, 10,000 cells per well, approximately 48 hours.
The mark [5] stands for this setting: 62.5 nM, A-431 cells, 10,000 cells per well, approximately 48 hours.
Setting [6] is: 4000.00 nM, A-431 cells, 10,000 cells per well, approximately 48 hours.
Setting [7] is: A-431 cells, approximately 48 hours, linear regression on log/linear plot.
Setting [8] is: Table 59, 15.6 nM, A-431 cells 10,000 cells per well, 48 hours.
Setting [9] is: Table 59, 62.5 nM, A-431 cells 10,000 cells per well, 48 hours.
[10] abbreviates: Table 59, 4000.00 nM, A-431 cells 10,000 cells per well, 48 hours.
Where [11] appears, read: Table 59, A-431 cells 10,000 cells per well.
The mark [12] stands for this setting: Table 61, 15.6 nM, A-431 cells 10,000 cells per well, 48 hours.
Where [13] appears, read: Table 61, 62.5 nM, A-431 cells 10,000 cells per well, 48 hours.
Where [14] appears, read: Table 61, 4000.00 nM, A-431 cells 10,000 cells per well, 48 hours.
Where [15] appears, read: Table 61, A-431 cells 10,000 cells per well.
Where [16] appears, read: Table 56, 15.6 nM, A-431 cells 10,000 cells per well, 48 hours.
Setting [17] is: Table 56, 62.5 nM, A-431 cells 10,000 cells per well, 48 hours.
Where [18] appears, read: Table 56, 4000.00 nM, A-431 cells 10,000 cells per well, 48 hours.
The mark [19] stands for this setting: Table 56, A-431 cells 10,000 cells per well.

Strand notation (5' to 3'): a small letter for the sugar, then the base; units joined by * are phosphorothioate-linked, units joined directly phosphodiester-linked; [ ] holds rarer units or linkages, { } end groups; capitals alone tell only the bases. k = constrained ethyl (cEt); [5mC] = 5-methylcytosine; d = 2'-deoxy (DNA)

Regarding “958540 (kA*kT*kT*d[5mC]*dT*dA*dT*d[5mC]*d[5mC]*dA*dG*dG*dG*kT*k[5mC]*kA; antisense) [compound 958540]”, in data set [1], the ALT was determined as 4127 U/L, the AST amounted to 3940 U/L, the BUN worked out at 25 mg/dL and the TBIL is recorded as 0.44 mg/dL. The “Yap1 mRNA, % UTC” value in data set [2] (setting [4]) is 62 % UTC. The “Yap1 mRNA, % UTC” value in data set [2] (setting [5]) turned out to be 28 % UTC. The “Yap1 mRNA, % UTC” value in data set [2] (setting [6]) is listed as 8 % UTC. In data set [2] (setting [7]), the IC50 was 20 nM. In data set [3], this substance had a Kidney weight of 0.33 g, a Liver weight of 1.53 g, a Spleen weight of 0.09 g and a body weight of 19 g.
In data set [1], “958498 (kG*kA*kG*dT*dA*dT*dG*dT*dG*dG*d[5mC]*dA*dA*kT*kA*kA; antisense) [compound 958498]” returned an ALT of 1441 U/L, an AST of 3197 U/L, a BUN of 12 mg/dL and a TBIL of 0.74 mg/dL. In data set [2] (setting [8]), the “Yap1 mRNA, % UTC” value amounted to 70 % UTC. The “Yap1 mRNA, % UTC” value in data set [2] (setting [9]) amounted to 21 % UTC. In data set [2] (setting [10]), the “Yap1 mRNA, % UTC” value came out at 2 % UTC. The substance further gave an IC50 in data set [2] (setting [11]) of 20 nM. Besides, in data set [3], the Kidney weight turned out to be 0.45 g, the Liver weight amounted to 1.51 g, the Spleen weight was found to be 0.19 g and the body weight was 20 g.
In data set [1], “958554 (kA*kA*k[5mC]*d[5mC]*dA*dT*dT*dA*dT*dT*dA*d[5mC]*dT*k[5mC]*k[5mC]*kT; antisense) [compound 958554]” returned an ALT of 583 U/L, an AST of 1051 U/L, a BUN of 17 mg/dL and a TBIL of 0.28 mg/dL. Further, the “Yap1 mRNA, % UTC” value in data set [2] (Table 60, 15.6 nM, A-431 cells 10,000 cells per well, 48 hours) worked out at 70 % UTC. In data set [2] (Table 60, 62.5 nM, A-431 cells 10,000 cells per well, 48 hours), the “Yap1 mRNA, % UTC” value is recorded as 34 % UTC. The “Yap1 mRNA, % UTC” value in data set [2] (Table 60, 4000.00 nM, A-431 cells 10,000 cells per well, 48 hours) is 4 % UTC. The substance also gave an IC50 in data set [2] (Table 60, A-431 cells 10,000 cells per well) of 30 nM. In data set [3], the Kidney weight stood at 0.28 g, the Liver weight stood at 1.05 g, the Spleen weight turned out to be 0.15 g and the body weight was found to be 22 g.
For “958454 (antisense kG*kG*kA*dA*dT*dG*dA*dG*d[5mC]*dT*d[5mC]*dG*dA*kA*k[5mC]*kA) [compound 958454]”, in data set [1], the ALT was determined as 1183 U/L, the AST is 2162 U/L, the BUN stood at 45 mg/dL and the TBIL is 6.53 mg/dL. Besides, the “Yap1 mRNA, % UTC” value in data set [2] (setting [12]) was found to be 72 % UTC. Moreover, in data set [2] (setting [13]), the “Yap1 mRNA, % UTC” value was 40 % UTC. For the same substance, the “Yap1 mRNA, % UTC” value in data set [2] (setting [14]) is reported as 4 % UTC. Also, the midpoint of inhibition in data set [2] (setting [15]), the IC50, lay at 40 nM. In data set [3], the Kidney weight came out at 0.25 g, the Liver weight is on record as 0.68 g, the Spleen weight was 0.03 g and the body weight is 14 g.
Turning to “958729 (kG*kT*k[5mC]*dA*dG*dT*dT*dA*dT*d[5mC]*d[5mC]*dT*dA*kT*k[5mC]*kT; antisense) [compound 958729]”, in data set [1], the ALT was found to be 4368 U/L, the AST is 4503 U/L, the BUN worked out at 30 mg/dL and the TBIL came out at 2.15 mg/dL. For the same substance, the “Yap1 mRNA, % UTC” value in data set [2] (setting [12]) is on record as 73 % UTC. For the same substance, in data set [2] (setting [13]), the “Yap1 mRNA, % UTC” value was determined as 44 % UTC. In addition, the “Yap1 mRNA, % UTC” value in data set [2] (setting [14]) amounted to 4 % UTC. Further, in data set [2] (setting [15]), the IC50 was 50 nM. In data set [3], this substance displayed a Kidney weight of 0.24 g, a Liver weight of 1.32 g, a Spleen weight of 0.05 g and a body weight of 15 g.
In data set [1], “958725 (kG*kT*k[5mC]*dA*dG*dT*dT*dA*dT*d[5mC]*d[5mC]*dT*dA*kT*k[5mC]*k[5mC]; antisense) [compound 958725]” yielded an ALT of 3758 U/L, an AST of 3758 U/L, a BUN of 31 mg/dL and a TBIL of 0.91 mg/dL. Further, the “Yap1 mRNA, % UTC” value in data set [2] (setting [4]) stood at 65 % UTC. Moreover, in data set [2] (setting [5]), the “Yap1 mRNA, % UTC” value is reported as 36 % UTC. In addition, in data set [2] (setting [6]), the “Yap1 mRNA, % UTC” value was determined as 1 % UTC. Also, in data set [2] (setting [7]), half-maximal inhibition (IC50) required 30 nM. In data set [3], this substance yielded a Kidney weight of 0.21 g, a Liver weight of 1.23 g, a Spleen weight of 0.04 g and a body weight of 15 g.
Take “958553 (k[5mC]*k[5mC]*kA*dT*dT*dA*dT*dT*dA*d[5mC]*dT*d[5mC]*d[5mC]*kT*kG*kT; antisense) [compound 958553]”: in data set [1], the ALT was 174 U/L, the AST was determined as 227 U/L, the BUN was 29 mg/dL and the TBIL amounted to 0.20 mg/dL. The “Yap1 mRNA, % UTC” value in data set [2] (setting [8]) amounted to 68 % UTC. In addition, in data set [2] (setting [9]), the “Yap1 mRNA, % UTC” value is 23 % UTC. Besides, in data set [2] (setting [10]), the “Yap1 mRNA, % UTC” value turned out to be 5 % UTC. The substance further returned a half-maximal inhibitory concentration (IC50) in data set [2] (setting [11]) of 30 nM. In data set [3], this substance came in with a Kidney weight of 0.29 g, a Liver weight of 1.01 g, a Spleen weight of 0.11 g and a body weight of 21 g.
In data set [1], “958509 (kA*kT*kG*dT*dT*dA*dT*dG*dT*dT*dT*dG*dG*kG*kT*kG; antisense) [compound 958509]” registered an ALT of 1483 U/L, an AST of 1627 U/L, a BUN of 26 mg/dL and a TBIL of 0.31 mg/dL. Besides, the “Yap1 mRNA, % UTC” value in data set [2] (setting [12]) was 66 % UTC. The “Yap1 mRNA, % UTC” value in data set [2] (setting [13]) worked out at 37 % UTC. Also, the “Yap1 mRNA, % UTC” value in data set [2] (setting [14]) is reported as 7 % UTC. This substance displayed a 50% inhibitory concentration (IC50) in data set [2] (setting [15]) of 30 nM. In data set [3], this substance gave a Kidney weight of 0.27 g, a Liver weight of 1.50 g, a Spleen weight of 0.13 g and a body weight of 20 g.
In the case of “958375 (antisense kA*kA*kA*dG*d[5mC]*d[5mC]*dT*dT*dA*dG*dA*dG*dT*k[5mC]*kA*kA) [compound 958375]”, in data set [1], the ALT is recorded as 2736 U/L, the AST turned out to be 3013 U/L, the BUN was determined as 22 mg/dL and the TBIL is reported as 0.43 mg/dL. The “Yap1 mRNA, % UTC” value in data set [2] (setting [16]) was 74 % UTC. In data set [2] (setting [17]), the “Yap1 mRNA, % UTC” value was 35 % UTC. In addition, in data set [2] (setting [18]), the “Yap1 mRNA, % UTC” value came to 5 % UTC. The same substance displayed an IC50 in data set [2] (setting [19]) of 40 nM. In data set [3], this substance had a Kidney weight of 0.39 g, a Liver weight of 2.00 g, a Spleen weight of 0.12 g and a body weight of 23 g.
In data set [1], “958736 (kG*kT*kG*dA*dT*dA*dT*dG*dG*dA*dT*dT*d[5mC]*kT*kG*kT; antisense) [compound 958736]” came in with an ALT of 2439 U/L, an AST of 1450 U/L, a BUN of 20 mg/dL and a TBIL of 0.31 mg/dL. Further, the “Yap1 mRNA, % UTC” value in data set [2] (setting [16]) came to 83 % UTC. Further, the “Yap1 mRNA, % UTC” value in data set [2] (setting [17]) worked out at 38 % UTC. Also, the “Yap1 mRNA, % UTC” value in data set [2] (setting [18]) is given as 7 % UTC. Moreover, the half-inhibitory concentration (IC50) in data set [2] (setting [19]) was 60 nM. In data set [3], the Kidney weight was 0.39 g, the Liver weight is 1.95 g, the Spleen weight amounted to 0.18 g and the body weight is given as 24 g.

Values taken from patent US11214803B2, “Modulators of YAP1 expression” (Ionis Pharmaceuticals, Inc., priority 2019, dated 2022).
